Results as given in PubChem BioAssay AID686974 (The Scripps Research Institute Molecular Screening Center, 2013).
Calls of active or inactive are those of the source.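 How the source made its calls: active means client protein degradation above 50% for Her2 or AKT on Western blot; inactive means client protein degradation below 10%.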

Legend:
[1] = biological target: RAC-alpha serine/threonine-protein kinase (Homo sapiens) (UniProt P31749); assay: HSP90 client depletion in MCF7 cells – cell-based, Western blot, mechanism study, late-stage follow-up (AID 686974); conditions: Her2/AKT client degradation, 24 h, AKT, hits give high values
RAC-alpha serine/threonine-protein kinase (Homo sapiens), sequence (P31749 whole entry, looked up): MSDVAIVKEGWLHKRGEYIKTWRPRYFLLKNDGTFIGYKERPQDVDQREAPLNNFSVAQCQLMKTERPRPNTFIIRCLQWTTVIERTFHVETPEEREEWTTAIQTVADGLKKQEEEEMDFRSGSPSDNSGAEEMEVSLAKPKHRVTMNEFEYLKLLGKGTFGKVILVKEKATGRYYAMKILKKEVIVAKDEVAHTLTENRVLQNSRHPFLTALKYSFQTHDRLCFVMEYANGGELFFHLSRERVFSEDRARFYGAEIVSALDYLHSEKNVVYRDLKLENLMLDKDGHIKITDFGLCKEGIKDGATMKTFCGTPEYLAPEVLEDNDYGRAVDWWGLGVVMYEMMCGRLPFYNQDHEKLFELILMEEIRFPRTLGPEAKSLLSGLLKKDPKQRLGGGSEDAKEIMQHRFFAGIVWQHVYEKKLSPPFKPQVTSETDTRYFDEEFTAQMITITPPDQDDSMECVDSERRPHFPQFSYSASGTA

[2] = biological target: Receptor tyrosine-protein kinase erbB-2 (Homo sapiens) (UniProt P04626); assay: as above; conditions: Her2/AKT client degradation, 24 h, hits give high values
Receptor tyrosine-protein kinase erbB-2 (Homo sapiens), sequence (P04626 whole entry, looked up): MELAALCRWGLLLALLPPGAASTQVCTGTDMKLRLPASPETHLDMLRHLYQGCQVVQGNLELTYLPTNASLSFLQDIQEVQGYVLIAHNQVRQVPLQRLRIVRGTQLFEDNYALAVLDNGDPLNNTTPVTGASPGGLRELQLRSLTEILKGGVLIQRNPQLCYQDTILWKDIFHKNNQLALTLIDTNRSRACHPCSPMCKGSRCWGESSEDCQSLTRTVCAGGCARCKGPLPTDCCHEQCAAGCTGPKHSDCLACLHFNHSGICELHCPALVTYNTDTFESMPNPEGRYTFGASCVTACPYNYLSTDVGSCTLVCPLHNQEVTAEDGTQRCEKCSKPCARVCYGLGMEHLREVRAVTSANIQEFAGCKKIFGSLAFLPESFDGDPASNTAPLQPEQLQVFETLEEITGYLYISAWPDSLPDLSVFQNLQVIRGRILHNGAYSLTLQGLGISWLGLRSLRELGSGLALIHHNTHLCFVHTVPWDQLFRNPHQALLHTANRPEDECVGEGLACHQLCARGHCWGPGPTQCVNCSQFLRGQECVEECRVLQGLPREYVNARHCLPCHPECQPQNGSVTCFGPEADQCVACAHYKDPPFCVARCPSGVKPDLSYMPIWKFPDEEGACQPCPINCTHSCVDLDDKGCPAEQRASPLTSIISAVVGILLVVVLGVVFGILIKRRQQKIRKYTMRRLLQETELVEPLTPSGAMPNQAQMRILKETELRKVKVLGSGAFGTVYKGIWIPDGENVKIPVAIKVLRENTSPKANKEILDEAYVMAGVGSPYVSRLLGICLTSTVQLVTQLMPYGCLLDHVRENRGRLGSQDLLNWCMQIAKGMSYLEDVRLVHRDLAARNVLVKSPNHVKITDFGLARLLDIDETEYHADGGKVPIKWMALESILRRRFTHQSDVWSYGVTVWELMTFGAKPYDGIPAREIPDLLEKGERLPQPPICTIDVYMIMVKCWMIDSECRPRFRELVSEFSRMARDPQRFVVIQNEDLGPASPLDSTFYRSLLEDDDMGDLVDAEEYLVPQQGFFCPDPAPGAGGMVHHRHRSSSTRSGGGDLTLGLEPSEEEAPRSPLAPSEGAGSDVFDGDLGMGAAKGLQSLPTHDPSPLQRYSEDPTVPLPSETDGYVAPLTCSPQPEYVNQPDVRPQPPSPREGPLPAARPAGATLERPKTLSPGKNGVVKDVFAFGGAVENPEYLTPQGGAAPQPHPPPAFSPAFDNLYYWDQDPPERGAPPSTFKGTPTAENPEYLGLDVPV

## CCCCCCCCOc1ccc(NC(=O)c2coc(=O)c(Br)c2)cc1
[1]; high dose (five times the growth IC50) 64.5 µM, low dose (half the growth IC50) 6.5 µM
  client protein degradation: < 10% (inactive)
[2]; Her2, high dose (five times the growth IC50) 64.5 µM, low dose (half the growth IC50) 6.5 µM
  client protein degradation: > 50%

## Cc1cccc(NC(=O)c2coc(=O)c(Br)c2)n1
[1]; high dose (five times the growth IC50) 136.5 µM, low dose (half the growth IC50) 13.7 µM
  client protein degradation: < 10% (inactive)
[2]; Her2, high dose (five times the growth IC50) 136.5 µM, low dose (half the growth IC50) 13.7 µM
  client protein degradation: > 50%

## O=C(NCCc1ccc(F)cc1)c1coc(=O)c(Br)c1
[1]; high dose (five times the growth IC50) 10.5 µM, low dose (half the growth IC50) 1.1 µM
  client protein degradation: < 10% (inactive)
[2]; Her2, high dose (five times the growth IC50) 10.5 µM, low dose (half the growth IC50) 1.1 µM
  client protein degradation: > 50%

## CC(NC(=O)c1coc(=O)c(Br)c1)C1C2CCC3CC(C2)CC31 (configuration not stated)
[1]; high dose (five times the growth IC50) 9 µM, low dose (half the growth IC50) 0.9 µM
  client protein degradation: < 10% (inactive)
[2]; Her2, high dose (five times the growth IC50) 9 µM, low dose (half the growth IC50) 0.9 µM
  client protein degradation: > 50%

## O=C(Nc1ccc(F)cc1)c1coc(=O)c(Br)c1
[1]; high dose (five times the growth IC50) 17 µM, low dose (half the growth IC50) 1.7 µM
  client protein degradation: > 50%
[2]; Her2, high dose (five times the growth IC50) 17 µM, low dose (half the growth IC50) 1.7 µM
  client protein degradation: > 50%

## COC(=O)c1ccc2nc(NC(=O)C3CC3)sc2c1
[1]; high dose (five times the growth IC50) 246 µM, low dose (half the growth IC50) 24.6 µM
  client protein degradation: < 10% (inactive)
[2]; Her2, high dose (five times the growth IC50) 246 µM, low dose (half the growth IC50) 24.6 µM
  client protein degradation: < 10% (inactive)

## O=C(NCc1cccnc1)c1coc(=O)c(Br)c1
[1]; high dose (five times the growth IC50) 17.5 µM, low dose (half the growth IC50) 1.8 µM
  client protein degradation: < 10% (inactive)
[2]; Her2, high dose (five times the growth IC50) 17.5 µM, low dose (half the growth IC50) 1.8 µM
  client protein degradation: > 50%

## CCCCOc1cccc(NC(=O)c2coc(=O)c(Br)c2)c1
[1]; high dose (five times the growth IC50) 114 µM, low dose (half the growth IC50) 11.4 µM
  client protein degradation: < 10% (inactive)
[2]; Her2, high dose (five times the growth IC50) 114 µM, low dose (half the growth IC50) 11.4 µM
  client protein degradation: > 50%

## CC(C)CNC(=O)c1coc(=O)c(Br)c1
[1]; high dose (five times the growth IC50) 37.5 µM, low dose (half the growth IC50) 3.8 µM
  client protein degradation: < 10% (inactive)
[2]; Her2, high dose (five times the growth IC50) 37.5 µM, low dose (half the growth IC50) 3.8 µM
  client protein degradation: > 50%

## COc1ccc(NC(=O)c2coc(=O)c(Br)c2)cc1
[1]; high dose (five times the growth IC50) 12 µM, low dose (half the growth IC50) 1.2 µM
  client protein degradation: > 50%
[2]; Her2, high dose (five times the growth IC50) 12 µM, low dose (half the growth IC50) 1.2 µM
  client protein degradation: > 50%

## O=C(Nc1ccccc1I)c1coc(=O)c(Br)c1
[1]; high dose (five times the growth IC50) 147 µM, low dose (half the growth IC50) 14.7 µM
  client protein degradation: > 50%
[2]; Her2, high dose (five times the growth IC50) 147 µM, low dose (half the growth IC50) 14.7 µM
  client protein degradation: > 50%

## CC(=O)c1ccc(NC(=O)c2coc(=O)c(Br)c2)cc1
[1]; high dose (five times the growth IC50) 53.5 µM, low dose (half the growth IC50) 5.4 µM
  client protein degradation: < 10% (inactive)
[2]; Her2, high dose (five times the growth IC50) 53.5 µM, low dose (half the growth IC50) 5.4 µM
  client protein degradation: > 50%

## O=C(NCc1ccco1)c1coc(=O)c(Br)c1
[1]; high dose (five times the growth IC50) 24 µM, low dose (half the growth IC50) 2.4 µM
  client protein degradation: > 50%
[2]; Her2, high dose (five times the growth IC50) 24 µM, low dose (half the growth IC50) 2.4 µM
  client protein degradation: > 50%

## COc1ccc(NC(=O)c2ccc(NC(=O)c3coc(=O)c(Br)c3)cc2)cc1
[1]; high dose (five times the growth IC50) 60.5 µM, low dose (half the growth IC50) 6.1 µM
  client protein degradation: < 10% (inactive)
[2]; Her2, high dose (five times the growth IC50) 60.5 µM, low dose (half the growth IC50) 6.1 µM
  client protein degradation: < 10% (inactive)

## Cc1cc(NC(=O)c2coc(=O)c(Br)c2)ccc1C(C)C
[1]; high dose (five times the growth IC50) 44.5 µM, low dose (half the growth IC50) 4.5 µM
  client protein degradation: < 10% (inactive)
[2]; Her2, high dose (five times the growth IC50) 44.5 µM, low dose (half the growth IC50) 4.5 µM
  client protein degradation: < 10% (inactive)

## CCOc1ccc(-c2nc(CN3CCCCC3CCn3cccn3)c(C)o2)cc1 (configuration not stated)
[1]; high dose (five times the growth IC50) 111 µM, low dose (half the growth IC50) 11.1 µM
  client protein degradation: < 10% (inactive)
[2]; Her2, high dose (five times the growth IC50) 111 µM, low dose (half the growth IC50) 11.1 µM
  client protein degradation: < 10% (inactive)
